{"source": "ChEMBL document CHEMBL1131274", "about": "“N6-(5,6-epoxynorbornyl)adenosine analogs as A1 adenosine agonists” (Bioorg Med Chem Lett, 1998)", "note": "pEC50: −log10 of the molar value."}
{"assay": "Potency to inhibit A1-adenosine receptor mediated cAMP accumulation in DDT1 MF-2 cells", "format": "functional, cell-based", "conditions": "Mesocricetus auratus"}
{"molecule": "CCNC(=O)[C@H]1OC(n2cnc3c(NC4CC5CC4C4OC54)[n+]([O-])cnc32)[C@H](O)[C@@H]1O", "note": "(some centres undefined)", "pEC50": 6.66}
{"molecule": "CCNC(=O)[C@H]1OC(n2cnc3c(NCC4CC5CC4C4OC54)ncnc32)[C@H](O)[C@@H]1O", "note": "(some centres undefined)", "pEC50": 6.80}
{"molecule": "OC[C@H]1OC(n2cnc3c(NCC4CC5CC4C4OC54)ncnc32)[C@H](O)[C@@H]1O", "note": "(some centres undefined)", "pEC50": 6.27}
{"molecule": "OC[C@H]1OC(n2cnc3c(NC4CC=CCC4)ncnc32)[C@H](O)[C@@H]1O", "note": "(some centres undefined)", "pEC50": 8.14}
{"molecule": "CCNC(=O)[C@H]1OC(n2cnc3c(NCCN4CCOCC4)ncnc32)[C@H](O)[C@@H]1O", "note": "(some centres undefined)", "pEC50": 7.74}
{"molecule": "OC[C@H]1OC(n2cnc3c(NCC4CC5C=CC4C5)ncnc32)[C@H](O)[C@@H]1O", "note": "(some centres undefined)", "pEC50": 6.73}
{"molecule": "OC[C@H]1OC(n2cnc3c(NCC4CCCCO4)ncnc32)[C@H](O)[C@@H]1O", "note": "(some centres undefined)", "pEC50": 5.51}
{"molecule": "CCNC(=O)[C@H]1OC(n2cnc3c(NCC4CCCCO4)ncnc32)[C@H](O)[C@@H]1O", "note": "(some centres undefined)", "pEC50": 6.19}
{"molecule": "CCNC(=O)[C@H]1OC(n2cnc3c(NC4CC=CCC4)ncnc32)[C@H](O)[C@@H]1O", "note": "(some centres undefined)", "pEC50": 8.96}
{"molecule": "CCNC(=O)[C@H]1OC(n2cnc3c(NCC4CC5C=CC4C5)ncnc32)[C@H](O)[C@@H]1O", "note": "(some centres undefined)", "pEC50": 7.46}
{"molecule": "CCNC(=O)[C@H]1OC(n2cnc3c(NC4CCC5OC5C4)ncnc32)[C@H](O)[C@@H]1O", "note": "(some centres undefined)", "pEC50": 8.23}
{"molecule": "OC[C@H]1O[C@@H](n2cnc3c(NC4CCCC4)ncnc32)[C@H](O)[C@@H]1O", "note": "[N6-CYCLOPENTYLADENOSINE]", "pEC50": 8.55}
{"molecule": "OC[C@H]1OC(n2cnc3c(NC4CCC5OC5C4)ncnc32)[C@H](O)[C@@H]1O", "note": "(some centres undefined)", "pEC50": 7.43}
{"molecule": "CCNC(=O)[C@H]1OC(n2cnc3c(NCc4ccco4)ncnc32)[C@H](O)[C@@H]1O", "note": "(some centres undefined)", "pEC50": 6.58}
